Data published in PubChem BioAssay (NCI).
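Assay format: 96-well plates, 48-hour exposure. Definition used: TGI = concentration required for complete inhibition of growth.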

What was measured:
Test in all cases: NCI tumour cell line growth inhibition, 48 h
MALME-3M melanoma = system: MALME-3M melanoma
SNB-75 CNS = system: SNB-75 CNS
SF-268 CNS = system: SF-268 CNS
A549 NSCLC = system: A549 NSCLC
LOX IMVI melanoma = system: LOX IMVI melanoma
RXF 393 renal = system: RXF 393 renal
DU-145 prostate = system: DU-145 prostate
SK-MEL-28 melanoma = system: SK-MEL-28 melanoma
RPMI-8226 leukemia = system: RPMI-8226 leukemia
OVCAR-4 ovarian = system: OVCAR-4 ovarian
NCI-H522 lung = system: NCI-H522 lung
ACHN renal = system: ACHN renal
COLO 205 colon = system: COLO 205 colon
OVCAR-3 ovarian = system: OVCAR-3 ovarian
EKVX NSCLC = system: EKVX NSCLC
SK-MEL-5 melanoma = system: SK-MEL-5 melanoma
KM12 colon = system: KM12 colon
CCRF-CEM leukemia = system: CCRF-CEM leukemia
HCT-15 colon = system: HCT-15 colon
SW-620 colon = system: SW-620 colon
UACC-257 melanoma = system: UACC-257 melanoma
MDA-MB-435 = system: MDA-MB-435
UACC-62 melanoma = system: UACC-62 melanoma
HOP-62 NSCLC = system: HOP-62 NSCLC
NCI-H23 lung = system: NCI-H23 lung
SN12C renal = system: SN12C renal
HOP-92 NSCLC = system: HOP-92 NSCLC
SK-MEL-2 melanoma = system: SK-MEL-2 melanoma
SF-539 CNS = system: SF-539 CNS
A498 renal = system: A498 renal
HT29 colon = system: HT29 colon
MCF7 breast = system: MCF7 breast
OVCAR-8 ovarian = system: OVCAR-8 ovarian
U251 CNS = system: U251 CNS
TK-10 renal = system: TK-10 renal
NCI-H460 lung = system: NCI-H460 lung
786-0 renal = system: 786-0 renal
HCT-116 colon = system: HCT-116 colon
MDA-N = system: MDA-N
SF-295 CNS = system: SF-295 CNS
SK-OV-3 ovarian = system: SK-OV-3 ovarian
MDA-MB-231 breast = system: MDA-MB-231 breast
M14 melanoma = system: M14 melanoma
PC-3 prostate = system: PC-3 prostate
UO-31 renal = system: UO-31 renal
CAKI-1 renal = system: CAKI-1 renal
NCI/ADR-RES ovarian = system: NCI/ADR-RES ovarian
SNB-19 CNS = system: SNB-19 CNS
K-562 leukemia = system: K-562 leukemia
IGROV1 ovarian = system: IGROV1 ovarian
HS 578T breast = system: HS 578T breast
OVCAR-5 ovarian = system: OVCAR-5 ovarian
MOLT-4 leukemia = system: MOLT-4 leukemia
NCI-H226 lung = system: NCI-H226 lung
SR leukemia = system: SR leukemia
T-47D breast = system: T-47D breast
HL-60(TB) leukemia = system: HL-60(TB) leukemia
HCC-2998 colon = system: HCC-2998 colon

With `COc1ccc(N(CN2C(=O)CCC2OC)C(C)=O)cc1` (centres undefined) the TGI (MALME-3M melanoma) was > 100 µM, the TGI (SNB-75 CNS) was > 100 µM and the TGI (SF-268 CNS) was > 100 µM. For the same molecule, the TGI (A549 NSCLC) was > 100 µM, the TGI (LOX IMVI melanoma) was > 100 µM and the TGI (RXF 393 renal) was > 100 µM. The TGI (DU-145 prostate) was > 100 µM, the TGI (SK-MEL-28 melanoma) was > 100 µM and the TGI (RPMI-8226 leukemia) was > 100 µM. For the same molecule, the TGI (OVCAR-4 ovarian) was > 100 µM, the TGI (NCI-H522 lung) was > 100 µM and the TGI (ACHN renal) was > 100 µM. For the same molecule, the TGI (COLO 205 colon) was > 100 µM, the TGI (OVCAR-3 ovarian) was > 100 µM and the TGI (EKVX NSCLC) was > 100 µM. For the same molecule, the TGI (SK-MEL-5 melanoma) was > 100 µM, the TGI (KM12 colon) was > 100 µM and the TGI (CCRF-CEM leukemia) was > 100 µM. For the same molecule, the TGI (HCT-15 colon) was > 100 µM, the TGI (SW-620 colon) was > 100 µM and the TGI (UACC-257 melanoma) was > 100 µM. For the same molecule, the TGI (MDA-MB-435) was > 100 µM, the TGI (UACC-62 melanoma) was > 100 µM and the TGI (HOP-62 NSCLC) was > 100 µM. The TGI (NCI-H23 lung) was > 100 µM, the TGI (SN12C renal) was > 100 µM and the TGI (HOP-92 NSCLC) was > 100 µM. The TGI (SK-MEL-2 melanoma) was > 100 µM, the TGI (SF-539 CNS) was > 100 µM and the TGI (A498 renal) was > 100 µM. The TGI (HT29 colon) was > 100 µM, the TGI (MCF7 breast) was > 100 µM and the TGI (OVCAR-8 ovarian) was > 100 µM. The TGI (U251 CNS) was > 100 µM, the TGI (TK-10 renal) was > 100 µM and the TGI (NCI-H460 lung) was > 100 µM. For the same molecule, the TGI (786-0 renal) was > 100 µM, the TGI (HCT-116 colon) was > 100 µM and the TGI (MDA-N) was > 100 µM. The TGI (SF-295 CNS) was > 100 µM, the TGI (SK-OV-3 ovarian) was > 100 µM and the TGI (MDA-MB-231 breast) was > 100 µM. For the same molecule, the TGI (M14 melanoma) was > 100 µM, the TGI (PC-3 prostate) was > 100 µM and the TGI (UO-31 renal) was > 100 µM. The TGI (CAKI-1 renal) was > 100 µM, the TGI (NCI/ADR-RES ovarian) was > 100 µM and the TGI (SNB-19 CNS) was > 100 µM. The TGI (K-562 leukemia) was > 100 µM, the TGI (IGROV1 ovarian) was > 100 µM and the TGI (HS 578T breast) was > 100 µM. The TGI (OVCAR-5 ovarian) was > 100 µM, the TGI (MOLT-4 leukemia) was > 100 µM and the TGI (NCI-H226 lung) was > 100 µM. The TGI (SR leukemia) was > 100 µM and the TGI (T-47D breast) was > 100 µM.

With `Cc1ccc2c(/C=C/c3ccc(N(C)C)cc3)ccnc2c1C` the TGI (MALME-3M melanoma) was 40.6 µM, the TGI (SNB-75 CNS) was 38.5 µM and the TGI (SF-268 CNS) was > 100 µM. For the same molecule, the TGI (A549 NSCLC) was > 100 µM, the TGI (LOX IMVI melanoma) was > 100 µM and the TGI (RXF 393 renal) was 48.4 µM. The TGI (DU-145 prostate) was > 100 µM, the TGI (SK-MEL-28 melanoma) was 52.9 µM and the TGI (RPMI-8226 leukemia) was 31 µM. It also gave a TGI (NCI-H522 lung) of 63.9 µM, a TGI (ACHN renal) of 96.7 µM and a TGI (COLO 205 colon) of 55.6 µM. The TGI (HL-60(TB) leukemia) was 80.7 µM, the TGI (OVCAR-3 ovarian) was > 100 µM and the TGI (EKVX NSCLC) was > 100 µM. The TGI (SK-MEL-5 melanoma) was 43.2 µM, the TGI (HCC-2998 colon) was 95.6 µM and the TGI (KM12 colon) was 72.3 µM. For the same molecule, the TGI (CCRF-CEM leukemia) was > 100 µM, the TGI (HCT-15 colon) was > 100 µM and the TGI (SW-620 colon) was > 100 µM. The TGI (UACC-257 melanoma) was > 100 µM, the TGI (MDA-MB-435) was > 100 µM and the TGI (UACC-62 melanoma) was 73.1 µM. For the same molecule, the TGI (HOP-62 NSCLC) was > 100 µM, the TGI (NCI-H23 lung) was > 100 µM and the TGI (SN12C renal) was > 100 µM. For the same molecule, the TGI (HOP-92 NSCLC) was 57.1 µM, the TGI (SF-539 CNS) was > 100 µM and the TGI (A498 renal) was > 100 µM. It also gave a TGI (HT29 colon) of 62.3 µM, a TGI (MCF7 breast) of 61.3 µM and a TGI (OVCAR-8 ovarian) of 60.8 µM. The TGI (U251 CNS) was > 100 µM, the TGI (TK-10 renal) was 43.6 µM and the TGI (NCI-H460 lung) was > 100 µM. For the same molecule, the TGI (786-0 renal) was > 100 µM, the TGI (HCT-116 colon) was > 100 µM and the TGI (MDA-N) was > 100 µM. The TGI (SF-295 CNS) was > 100 µM, the TGI (SK-OV-3 ovarian) was 67.9 µM and the TGI (MDA-MB-231 breast) was > 100 µM. For the same molecule, the TGI (M14 melanoma) was > 100 µM, the TGI (PC-3 prostate) was 64.3 µM and the TGI (UO-31 renal) was 54 µM. The TGI (CAKI-1 renal) was > 100 µM, the TGI (NCI/ADR-RES ovarian) was > 100 µM and the TGI (SNB-19 CNS) was > 100 µM. For the same molecule, the TGI (K-562 leukemia) was > 100 µM, the TGI (HS 578T breast) was > 100 µM and the TGI (OVCAR-5 ovarian) was > 100 µM. The TGI (MOLT-4 leukemia) was > 100 µM, the TGI (NCI-H226 lung) was > 100 µM and the TGI (T-47D breast) was > 100 µM.

For `COc1cc(C2c3cc4c(cc3[C@@H](Nc3ccc(F)cc3)C3CO[C@@H](O)[C@H]23)OCO4)cc(OC)c1O` (some centres undefined), the TGI (SNB-75 CNS) was > 25 µM, the TGI (SF-268 CNS) was > 25 µM and the TGI (A549 NSCLC) was > 25 µM. The TGI (SK-MEL-28 melanoma) was > 25 µM, the TGI (RPMI-8226 leukemia) was > 25 µM and the TGI (OVCAR-4 ovarian) was > 25 µM. The TGI (NCI-H522 lung) was 15 µM, the TGI (ACHN renal) was 6.88 µM and the TGI (COLO 205 colon) was > 25 µM. The TGI (HL-60(TB) leukemia) was 5.23 µM, the TGI (EKVX NSCLC) was > 25 µM and the TGI (SK-MEL-5 melanoma) was > 25 µM. The TGI (HCC-2998 colon) was > 25 µM, the TGI (KM12 colon) was > 25 µM and the TGI (CCRF-CEM leukemia) was 7.72 µM. The TGI (HCT-15 colon) was > 25 µM, the TGI (SW-620 colon) was > 25 µM and the TGI (UACC-257 melanoma) was > 25 µM. The TGI (MDA-MB-435) was > 25 µM, the TGI (HOP-62 NSCLC) was > 25 µM and the TGI (SN12C renal) was > 25 µM. For the same molecule, the TGI (SF-539 CNS) was 12.6 µM, the TGI (MCF7 breast) was > 25 µM and the TGI (OVCAR-8 ovarian) was > 25 µM. For the same molecule, the TGI (U251 CNS) was 8.47 µM, the TGI (TK-10 renal) was > 25 µM and the TGI (NCI-H460 lung) was > 25 µM. The TGI (786-0 renal) was > 25 µM, the TGI (HCT-116 colon) was > 25 µM and the TGI (MDA-N) was > 25 µM. The TGI (SF-295 CNS) was 10.3 µM, the TGI (SK-OV-3 ovarian) was > 25 µM and the TGI (MDA-MB-231 breast) was > 25 µM. For the same molecule, the TGI (M14 melanoma) was > 25 µM, the TGI (PC-3 prostate) was > 25 µM and the TGI (UO-31 renal) was 8.28 µM. The TGI (NCI/ADR-RES ovarian) was > 25 µM, the TGI (SNB-19 CNS) was > 25 µM and the TGI (K-562 leukemia) was > 25 µM. For the same molecule, the TGI (IGROV1 ovarian) was > 25 µM, the TGI (HS 578T breast) was 14.7 µM and the TGI (OVCAR-5 ovarian) was 12.8 µM. The TGI (MOLT-4 leukemia) was 4.43 µM and the TGI (T-47D breast) was > 25 µM.
